PubChem BioAssay (NCI)
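Values below derive from 48-hour exposures of cells grown in 96-well plates, with endpoints linearly interpolated between the two concentrations bracketing the appropriate inhibition level. Definition used: TGI = concentration required for complete inhibition of growth.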

Legend:
Assay in all cases: NCI-60 cell line screen, 48 h
DU-145 prostate = system: DU-145 prostate
NCI/ADR-RES ovarian = system: NCI/ADR-RES ovarian
MDA-MB-231 breast = system: MDA-MB-231 breast
SK-MEL-2 melanoma = system: SK-MEL-2 melanoma
SK-OV-3 ovarian = system: SK-OV-3 ovarian
786-0 renal = system: 786-0 renal
PC-3 prostate = system: PC-3 prostate
TK-10 renal = system: TK-10 renal
SF-268 CNS = system: SF-268 CNS
HCC-2998 colon = system: HCC-2998 colon
OVCAR-4 ovarian = system: OVCAR-4 ovarian
T-47D breast = system: T-47D breast
SK-MEL-5 melanoma = system: SK-MEL-5 melanoma
NCI-H226 lung = system: NCI-H226 lung
MALME-3M melanoma = system: MALME-3M melanoma
SNB-75 CNS = system: SNB-75 CNS
SR leukemia = system: SR leukemia
MCF7 breast = system: MCF7 breast
SF-295 CNS = system: SF-295 CNS
A498 renal = system: A498 renal
OVCAR-5 ovarian = system: OVCAR-5 ovarian
CCRF-CEM leukemia = system: CCRF-CEM leukemia
K-562 leukemia = system: K-562 leukemia
HOP-92 NSCLC = system: HOP-92 NSCLC
HL-60(TB) leukemia = system: HL-60(TB) leukemia
SK-MEL-28 melanoma = system: SK-MEL-28 melanoma
COLO 205 colon = system: COLO 205 colon
NCI-H23 lung = system: NCI-H23 lung
ACHN renal = system: ACHN renal
HT29 colon = system: HT29 colon
LOX IMVI melanoma = system: LOX IMVI melanoma
EKVX NSCLC = system: EKVX NSCLC
UACC-62 melanoma = system: UACC-62 melanoma
OVCAR-3 ovarian = system: OVCAR-3 ovarian
IGROV1 ovarian = system: IGROV1 ovarian
SNB-19 CNS = system: SNB-19 CNS
UACC-257 melanoma = system: UACC-257 melanoma
CAKI-1 renal = system: CAKI-1 renal
MOLT-4 leukemia = system: MOLT-4 leukemia
KM12 colon = system: KM12 colon
HOP-62 NSCLC = system: HOP-62 NSCLC
SN12C renal = system: SN12C renal
RXF 393 renal = system: RXF 393 renal
UO-31 renal = system: UO-31 renal
OVCAR-8 ovarian = system: OVCAR-8 ovarian
HCT-116 colon = system: HCT-116 colon
NCI-H460 lung = system: NCI-H460 lung
SF-539 CNS = system: SF-539 CNS
U251 CNS = system: U251 CNS
HCT-15 colon = system: HCT-15 colon
A549 NSCLC = system: A549 NSCLC
NCI-H522 lung = system: NCI-H522 lung
M14 melanoma = system: M14 melanoma
SW-620 colon = system: SW-620 colon
MDA-MB-435 = system: MDA-MB-435
HS 578T breast = system: HS 578T breast
BT-549 breast = system: BT-549 breast
RPMI-8226 leukemia = system: RPMI-8226 leukemia

Measured: TGI

O=CC12c3ccccc3C(c3ccccc31)C1C(=O)NC(=O)C12 (stereo not drawn)
47.7 µM: MCF7 breast
48.2 µM: A498 renal
> 100 µM: DU-145 prostate | NCI/ADR-RES ovarian | MDA-MB-231 breast | SK-MEL-2 melanoma | SK-OV-3 ovarian | 786-0 renal | PC-3 prostate | TK-10 renal | SF-268 CNS | HCC-2998 colon | OVCAR-4 ovarian | T-47D breast | SK-MEL-5 melanoma | NCI-H226 lung | MALME-3M melanoma | SNB-75 CNS | SR leukemia | SF-295 CNS | OVCAR-5 ovarian | CCRF-CEM leukemia | K-562 leukemia | HOP-92 NSCLC | HL-60(TB) leukemia | SK-MEL-28 melanoma | COLO 205 colon | NCI-H23 lung | ACHN renal | HT29 colon | LOX IMVI melanoma | EKVX NSCLC | UACC-62 melanoma | OVCAR-3 ovarian | IGROV1 ovarian | SNB-19 CNS | UACC-257 melanoma | CAKI-1 renal | MOLT-4 leukemia | KM12 colon | HOP-62 NSCLC | SN12C renal | RXF 393 renal | UO-31 renal | OVCAR-8 ovarian | HCT-116 colon | NCI-H460 lung | SF-539 CNS | U251 CNS | HCT-15 colon | A549 NSCLC | NCI-H522 lung | M14 melanoma | SW-620 colon | MDA-MB-435

S=c1ncc2n[nH]nc2[nH]1
> 100 µM: DU-145 prostate | NCI/ADR-RES ovarian | MDA-MB-231 breast | 786-0 renal | PC-3 prostate | HS 578T breast | TK-10 renal | SF-268 CNS | HCC-2998 colon | OVCAR-4 ovarian | SK-MEL-5 melanoma | NCI-H226 lung | BT-549 breast | MALME-3M melanoma | SNB-75 CNS | SR leukemia | MCF7 breast | SF-295 CNS | A498 renal | OVCAR-5 ovarian | CCRF-CEM leukemia | K-562 leukemia | HOP-92 NSCLC | RPMI-8226 leukemia | HL-60(TB) leukemia | SK-MEL-28 melanoma | COLO 205 colon | NCI-H23 lung | ACHN renal | HT29 colon | LOX IMVI melanoma | EKVX NSCLC | OVCAR-3 ovarian | IGROV1 ovarian | SNB-19 CNS | UACC-257 melanoma | CAKI-1 renal | MOLT-4 leukemia | KM12 colon | HOP-62 NSCLC | SN12C renal | RXF 393 renal | UO-31 renal | OVCAR-8 ovarian | HCT-116 colon | NCI-H460 lung | SF-539 CNS | U251 CNS | HCT-15 colon | A549 NSCLC | NCI-H522 lung | SW-620 colon | MDA-MB-435
